The results in this text go back to ChEMBL document CHEMBL1137533, “Activity of 7-methyljuglone derivatives against Mycobacterium tuberculosis and as subversive substrates for mycothiol disulfide reductase” (Bioorg Med Chem, 2007).

For orientation: MIC means the lowest concentration that inhibits growth of the organism. One may read the IC50 as the concentration at which inhibition is half-maximal. In general, Km refers to the substrate concentration at which the rate is half of its maximum. For orientation: kcat means the number of substrate molecules converted per active site and unit of time at saturation.

Assay [1] has as its system Mycobacterium tuberculosis. Briefly: Antimycobacterial activity against Mycobacterium tuberculosis H37Rv. It counts as functional.
For the next assay, the system named is Vero. The assay is described as follows: Cytotoxicity against Vero cells after 48 hrs by XTT method. It counts as cell-based. To be noted: Chlorocebus sabaeus.
Assay [2] can be described thus: Selectivity index, ratio of IC50 for Vero cells to MIC of Mycobacterial tuberculosis H37Rv. The class given is functional.
Assay [3] concerns Mycobacterium tuberculosis. Briefly: Activity of Mycobacterium tuberculosis mycothiol reductase.
In assay [4] the test system is Mycobacterium tuberculosis. Briefly: Ratio of kcat to Km of Mycobacterium tuberculosis mycothiol reductase. Also on record: unit not given here.
For assay [5], the system named is Mycobacterium tuberculosis. The assay is described as follows: Antimycobacterial activity against Mycobacterium tuberculosis H37Rv at MIC. The class given is functional.
The subject of assay [6] is Mycobacterium tuberculosis. Briefly: Activity of Mycobacterium tuberculosis mycothiol reductase upto 800 uM.

Values after ≈ are worked out from the molar mass of the structure shown. Active and inactive are the calls of the source. The rule behind the calls is not given here. Some results are limits rather than exact numbers.

The molecule `Cc1ccc2c(c1O)C(=O)C=CC2=O` gave a minimum inhibitory concentration (MIC) in assay [1] of 5 µg/mL (≈ 26.6 µM). Besides, the concentration for half-maximal inhibition (IC50) in the assay with Vero came to 3.1 µg/mL (≈ 16.5 µM). The Ratio in assay [2] is listed as 0.63.

`CC(=O)Oc1cc(C)cc2c1C(=O)C=CC2=O` had an MIC in assay [1] of 2.5 µg/mL (≈ 10.9 µM). In the assay on Vero, the half-inhibitory concentration (IC50) came to 6 µg/mL (≈ 26.1 µM). Besides, the Ratio in assay [2] worked out at 2.4. In assay [3], the Km was 389 µM and the turnover number (kcat) was determined as 3.17 s⁻¹. Moreover, in assay [4], the kcat/Km is 8.15e+07. Further, in assay [5], the Activity was 99.9%.

For the molecule `CC(=O)Oc1cc(C)c(Cl)c2c1C(=O)C=CC2=O`, the MIC in assay [1] was 10 µg/mL (≈ 37.8 µM). Also, in the assay on Vero, the concentration for half-maximal inhibition (IC50) came to 6.3 µg/mL (≈ 23.8 µM). For the same molecule, the Ratio in assay [2] came out at 0.63. In assay [5], this molecule displayed an Activity of 99.9%.

For `COc1cc(C)cc2c1C(=O)C=CC2=O`, the minimal inhibitory concentration (MIC) in assay [1] came to 15 µg/mL (≈ 74.2 µM). In the assay on Vero, this molecule returned an IC50 of 5.8 µg/mL (≈ 28.7 µM). For the same molecule, the Ratio in assay [2] is 0.39. This molecule also returned an Activity in assay [5] of 99.9%.

For the molecule `CC(=O)Oc1cc(OC(C)=O)c2c(OC(C)=O)c(C)cc(Cl)c2c1OC(C)=O`, the MIC in assay [1] is over 20 µg/mL. The IC50 with Vero was determined as 149 µg/mL (≈ 365 µM). This molecule also showed an Activity in assay [5] of 99.9%.

`COc1cc(C)c(Cl)c2c1C(=O)C=CC2=O` gave an MIC in assay [1] of over 20 µg/mL. Also, it took 7.7 µg/mL (≈ 32.5 µM) to reach half-maximal inhibition with Vero (IC50). In addition, in assay [3], the Km came out at 435 µM and the kcat was 0.142 s⁻¹. In addition, the kcat/Km in assay [4] turned out to be 3.3e+06. In assay [5], the Activity was 99.9%.

Consider `CCOc1c(C)cc(Cl)c2c1C(=O)C=CC2=O`, for which the MIC in assay [1] came to 15 µg/mL (≈ 59.8 µM). In addition, half-maximal inhibition in the assay on Vero (IC50) required 12.5 µg/mL (≈ 49.9 µM). Also, the Ratio in assay [2] is given as 0.83. This molecule yielded an Activity in assay [5] of 99.9%.

In assay [1], `CCOc1cc(C)cc2c1C(=O)C=CC2=O` displayed an MIC of 15 µg/mL (≈ 69.4 µM). This molecule showed an IC50 in the assay with Vero of 6.3 µg/mL (≈ 29.1 µM). Further, the Ratio in assay [2] is listed as 0.42. The Activity in assay [5] worked out at 99.9%.

`CCOc1cc(C)c(Cl)c2c1C(=O)C=CC2=O`: the minimal inhibitory concentration (MIC) in assay [1] is over 20 µg/mL. In the assay on Vero, this molecule showed an IC50 of 36.1 µg/mL (≈ 144 µM). In assay [5], the Activity amounted to 99.9%.

In assay [1], `CC(=O)Oc1cc(OC(C)=O)c2c(OC(C)=O)cc(C)cc2c1OC(C)=O` yielded a minimal inhibitory concentration (MIC) of over 20 µg/mL. For the same molecule, inhibition in the assay on Vero was half-maximal at 17.2 µg/mL (≈ 45.9 µM) (IC50). In assay [5], this molecule came in with an Activity of 99.9%.

The molecule `COc1c(C)cc(Cl)c2c1C(=O)C=CC2=O` returned a minimal inhibitory concentration (MIC) in assay [1] of 15 µg/mL (≈ 63.4 µM). For the same molecule, the concentration for half-maximal inhibition (IC50) in the assay with Vero came out at 8 µg/mL (≈ 33.8 µM). In assay [2], the Ratio amounted to 0.54. In assay [5], this molecule yielded an Activity of 99.9%.

`CC(=O)Oc1cc(OC(C)=O)c2c(OC(C)=O)cc(C)c(Cl)c2c1OC(C)=O` had an MIC in assay [1] of over 20 µg/mL. Also, inhibition in the assay on Vero was half-maximal at 27.8 µg/mL (≈ 68 µM) (IC50). The molecule further displayed an Activity in assay [5] of 99.9%.

For `CC(=O)Oc1c(C)cc(Cl)c2c1C(=O)C=CC2=O`, 10 µg/mL (≈ 37.8 µM) was the least that counted as inhibitory in assay [1] (MIC). The molecule also had an IC50 with Vero of 21.1 µg/mL (≈ 79.7 µM). Also, in assay [2], the Ratio came out at 2.1. In assay [5], this molecule showed an Activity of 99.9%.

On to `Cc1cc(O)c2c(c1)C(=O)C(O)=CC2=O`, for which, in assay [1], inhibition of growth (MIC) required 5 µg/mL (≈ 24.5 µM). In the assay with Vero, this molecule gave a 50% inhibitory concentration (IC50) of 3.1 µg/mL (≈ 15.2 µM). Further, the Ratio in assay [2] is 0.63. In assay [5], this molecule displayed an Activity of 99.9%.

The molecule `Cc1cc(O)c2c(c1Br)C(=O)C=CC2=O` [5-BROMO-8-HYDROXY-6-METHYLNAPHTHALENE-1,4-DIONE] returned a minimal inhibitory concentration (MIC) in assay [1] of 5 µg/mL (≈ 18.7 µM). In the assay with Vero, this molecule returned an IC50 of 3.6 µg/mL (≈ 13.5 µM). Moreover, the Ratio in assay [2] is recorded as 0.71.

The molecule `Cc1cc(O)c2c(c1Cl)C(=O)C=CC2=O` [5-CHLORO-8-HYDROXY-6-METHYLNAPHTHALENE-1,4-DIONE] gave a minimum inhibitory concentration (MIC) in assay [1] of 10 µg/mL (≈ 44.9 µM). Moreover, in the assay with Vero, half-maximal inhibition (IC50) was put at 2.5 µg/mL (≈ 11.2 µM). Further, the Ratio in assay [2] is reported as 0.25. In addition, in assay [3], the Km came to 233 µM and the kcat was 0.212 s⁻¹. For the same molecule, the kcat/Km in assay [4] is 9.1e+06.

`Cc1cc(O)c2c(c1F)C(=O)C=CC2=O` [5-FLUORO-8-HYDROXY-6-METHYLNAPHTHALENE-1,4-DIONE]: in assay [1], the MIC amounted to 10 µg/mL (≈ 48.5 µM). The same molecule registered an IC50 with Vero of 7.6 µg/mL (≈ 36.9 µM). For the same molecule, in assay [2], the Ratio stood at 0.76.

`Cc1cc(Cl)c2c(c1O)C(=O)C=CC2=O` [8-CHLORO-5-HYDROXY-6-METHYLNAPHTHALENE-1,4-DIONE] yielded an MIC in assay [1] of 5 µg/mL (≈ 22.5 µM). In the assay on Vero, this molecule had an IC50 of 4.6 µg/mL (≈ 20.7 µM). In assay [2], the Ratio came to 0.92. Besides, in assay [3], the Michaelis-Menten constant (Km) was 36 µM and the kcat was 0.592 s⁻¹. The kcat/Km in assay [4] turned out to be 1.64e+08. In addition, in assay [5], the Activity was 99.9%.

`Cc1cc(O)c2c(c1)C(=O)C(c1c(C)cc3c(c1O)C(=O)C=CC3=O)=CC2=O` [DIOSPYRIN] returned an MIC in assay [1] of 8 µg/mL (≈ 21.4 µM). Also, the IC50 in the assay on Vero was 17.8 µg/mL (≈ 47.5 µM). Further, in assay [2], the Ratio is 2.2. In assay [3], the Km is 33 µM and the kcat came out at 0.118 s⁻¹. Moreover, the kcat/Km in assay [4] is 3.57e+07.

Molecule `CC[C@@H](CO)NCCN[C@@H](CC)CO` [ETHAMBUTOL] returned an MIC in assay [1] of 2 µg/mL (≈ 9.79 µM). In the assay on Vero, this molecule displayed an IC50 of over 150 µg/mL. In addition, the Ratio in assay [2] is listed as over 75. In assay [5], the Activity was 99.9%.

As to `NNC(=O)c1ccncc1` [ISONIAZID], in assay [1], it took 0.2 µg/mL (≈ 1.46 µM) to inhibit growth (MIC). The concentration for half-maximal inhibition (IC50) with Vero is over 200 µg/mL. Also, the Ratio in assay [2] is over 1000. In assay [5], this molecule came in with an Activity of 99.9%.

In assay [1], `CC1=CC(=O)c2ccccc2C1=O` [MENADIONE] showed a minimal inhibitory concentration (MIC) of 5 µg/mL (≈ 29 µM). The same molecule displayed an IC50 in the assay on Vero of 6.5 µg/mL (≈ 37.8 µM). Further, in assay [2], the Ratio is 1.3. Further, in assay [3], the Km amounted to 483 µM and the kcat came out at 0.732 s⁻¹. For the same molecule, the kcat/Km in assay [4] was found to be 1.52e+07. This molecule came in with an Activity in assay [5] of 99.9%.

Take `O=C1C=CC(=O)c2ccccc21` [NAPHTHOQUINONE]: the minimal inhibitory concentration (MIC) in assay [1] was 1 µg/mL (≈ 6.32 µM). The molecule also registered an IC50 in the assay with Vero of 1.2 µg/mL (≈ 7.59 µM). For the same molecule, the Ratio in assay [2] is on record as 1.19. Besides, in assay [3], the Michaelis constant (Km) was 324 µM and the kcat was 1.09 s⁻¹. Moreover, the kcat/Km in assay [4] amounted to 3.36e+07. The Activity in assay [5] is 99.9%.

In turn, `Cc1cc(O)c2c(c1)C(=O)C=C(c1c(C)cc(O)c3c1C(=O)C=CC3=O)C2=O` [NEODIOSPYRIN] returned an MIC in assay [1] of 10 µg/mL (≈ 26.7 µM). Inhibition in the assay with Vero was half-maximal at 32 µg/mL (≈ 85.5 µM) (IC50). In assay [2], the Ratio came to 3.2. Moreover, in assay [3], the Michaelis constant (Km) is 63 µM and the catalytic constant (kcat) was found to be 0.308 s⁻¹. Moreover, the kcat/Km in assay [4] is 4.88e+07.

In assay [1], `Cc1cc(O)c2c(c1)C(=O)C=CC2=O` [RAMENTACEONE] registered an MIC of 0.5 µg/mL (≈ 2.66 µM). In the assay on Vero, this molecule gave a half-inhibitory concentration (IC50) of 15.1 µg/mL (≈ 80.2 µM). Also, the Ratio in assay [2] came out at 30.22. Besides, in assay [3], the Km was 254 µM and the kcat turned out to be 2.37 s⁻¹. The kcat/Km in assay [4] worked out at 9.31e+07.

As to `Cc1cc(O)c2c(c1)[C@H](O)CCC2=O` [SHINANOLONE], the MIC in assay [1] was over 100 µg/mL. Further, the outcome in assay [6] was inactive. The molecule further registered an Activity in assay [5] of 99.9%.

`CN[C@@H]1[C@H](O[C@H]2[C@H](O[C@H]3[C@H](O)[C@@H](O)[C@H](N=C(N)N)[C@@H](O)[C@@H]3N=C(N)N)O[C@@H](C)[C@]2(O)C=O)O[C@@H](CO)[C@H](O)[C@H]1O` [STREPTOMYCIN] gave an MIC in assay [1] of 1 µg/mL (≈ 1.72 µM). This molecule came in with a concentration for half-maximal inhibition (IC50) in the assay on Vero of over 120 µg/mL. Moreover, the Ratio in assay [2] is over 120. The same molecule returned an Activity in assay [5] of 99.9%.
